These results are taken from paper PMC10933344, “A lncRNA Dleu2-encoded peptide relieves autoimmunity by facilitating Smad3-mediated Treg induction” (EMBO Reports, 2024).

Data set [1] has as its system Jurkat cells. Put plainly: Uptake of FAM-labeled peptide, flow cytometry. It is filed as cell-based, human. The note with it: 6-FAM conjugate, 10 μM, n = 3. As for the experimental part: (§1) Figure EV1 Dleu2-17aa enters CD4^+ T cells. (A) Representative histogram of Dleu2-17aa (10 μM) uptake in Jurkat and EL4 cell lines (n = 3). (B) Flow cytometry plots showing FAM-Dleu2-17aa^+ cells gated on CD4^+ T cells after treatment with increasing concentrations of FAM-Dleu2-17aa for 72 h (n = 3). (C) Histograms showing fluorescence intensity of FAM-Dleu2-17aa in CD4^+ T cells after treatment with increasing concentrations of FAM-Dleu2-17aa for 72 h. Gray filled: untreated control (n = 3). (D) Immunofluorescence imaging of FAM-Dleu2-17aa (10 μM) penetration by CD4^+ T cells isolated from WT mouse spleen (n = 3). Scale bars: 20 μm. Data information: n indicates biological replicate.
(§2) The mouse T cell line EL4 (TIB-39) cells and fibroblast cell line NIH/3T3 (CRL-1658) cells were cultured in high-glucose DMEM (Thermo Fisher Scientific) supplemented with 10% fetal bovine serum (FBS; Gibco). The human T cell line Jurkat (TIB-152) cells were cultured in RPMI 1640 medium (Thermo Fisher Scientific) supplemented with 10% FBS. All lines were maintained at 37 °C in a humidified 5% CO2 atmosphere.

For data set [2], the system named is EL4 cells. Put plainly: Uptake of FAM-labeled peptide, flow cytometry. It is filed as cell-based, mouse. To be noted: 6-FAM conjugate, 10 μM, n = 3. Here is the method: as §1, §2
Background: Flow cytometry measures light scatter and fluorescence of single cells or particles in a stream.

In data set [3] the test system is CD4+ T cells. Put plainly: Uptake of FAM-labeled peptide, flow cytometry. It counts as cell-based. To be noted: 6-FAM conjugate, 72 h, mouse CD4+ T cells, n = 3. Here is the method:
as §1

Data set [4] deals with CD4+ T cells. Put plainly: Subcellular distribution by confocal immunofluorescence microscopy. It is filed as cell-based. The note with it: 6-FAM conjugate, 10 μM, 4 h, mouse CD4+ T cells, n = 3. As for the experimental part:
as §1
Mouse CD4^+ T cells and EL4 cells were seeded on glass coverslips and incubated with FAM-Dleu2-17aa (10 µM) for 4 h. Cultured cells were washed three times in PBS and fixed with 4% PFA for 10 min at RT, then incubated in Blocking Buffer (1 × PBS/5% BSA/0.3% Triton X-100) for 1 h. After being washed in PBS and air drying, the coverslips were mounted with DAPI (1:1000; Thermo Fisher Scientific). Images were acquired with Leica TCS SP8 laser scanning confocal microscope.

Data set [5] has as its system spinal cord of EAE mice. Put plainly: Immunostaining of spinal cord sections of treated EAE mice. It counts as in vivo, mouse. An excerpt:
We then analyzed the T cell subsets in the CNS of WT and KO mice after EAE induction to clarify the inflammatory responses. […] To investigate if Dleu2-17aa affects CNS pathology in EAE, we performed immunostaining of spinal cord sections on EAE mice treated with Dleu2-17aa or scrPEP. […] Neuronal staining was also unaffected by Dleu2-17aa, indicating no significant alterations in CNS inflammation.
DAPI Dleu2-17aa CD4 DAPI Dleu2-17aa Iba1 DAPI Dleu2-17aa GFAP DAPI Dleu2-17aa NeuN
Appendix Fig S7: Effects of Dleu2-17aa on CNS pathology.
Representative immunofluorescence images showing Dleu2-17aa and CD4+ T cells (CD4),
microglia (Iba1), astrocyte (GFAP), and neuron (NeuN) staining in spinal cords of WT and KO EAE […]

Data set [6] concerns naive CD4+ T cells. Put plainly: In vitro iTreg differentiation (Foxp3+ of CD4+ cells). It is filed as cell-based, mouse. To be noted: 10 μM, 72 h, n = 4. As for the experimental part: C57BL/6 mice were sacrificed, and their spleens and peripheral lymph nodes were removed and gently dissociated into single-cell suspensions. Naive T cells were isolated using the Mouse CD4 Naive T Cell Isolation Kit (BioLegend, Stem Cell, or Thermo Fisher Scientific). Flow cytometry verified that the purity (CD4^+CD25^−CD62L^hi) of the enriched subpopulation was typically higher than 95%. All T cells were cultured using RPMI-1640 medium (Gibco) supplemented with 10% heat-inactivated fetal bovine serum (Gibco), 2 mM L-glutamine (Gibco), 10,000 units/mL of penicillin, 10,000 µg/mL of streptomycin, and 25 µg/mL of Gibco Amphotericin B (Thermo Fisher Scientific), 10 mM HEPES (Gibco), 1 mM Sodium pyruvate, MEM Non-Essential Amino Acids (Life Technologies) and 55 μM β-mercaptoethanol (Gibco). 0.1 million naive CD4^+ T cells were activated with plate-coated anti-CD3 (2.5 μg/ml; BD Biosciences) and soluble anti-CD28 (2 μg/ml; BD Biosciences) antibodies. The Th1 cell differentiation condition included recombinant murine (rm)IL-12 (10 ng/ml, PeproTech) and anti-IL-4 (10 μg/ml, BioLegend). The Th17 cell differentiation condition included rmIL-6 (10 ng/ml, PeproTech), rmTGF-β1 (5 ng/ml, PeproTech), rmIL-23 (10 ng/ml, PeproTech), anti-IL-4 (5 μg/ml, BioLegend) and anti-IFN-γ (10 μg/ml, eBioscience). The inducible T regulatory cell (iTreg) differentiation condition included rmTGF-β (5 ng/ml, PeproTech). 0.1 million naive CD8^+ T cells were activated with plate-coated anti-CD3 (10 μg/ml; BD Biosciences) and plate-coated anti-CD28 (10 μg/ml; BD Biosciences) antibodies. The Tc17 cell differentiation condition included rmIL-6 (10 ng/ml, PeproTech), rmTGF-β1 (2 ng/ml, PeproTech), rmIL-23 (25 ng/ml, PeproTech), rmIL1-β (5 ng/ml, PeproTech), and anti-IFN-γ (10 μg/ml, eBioscience). The Tc1 cell differentiation condition included rmIL-2 (5 ng/ml, PeproTech) and rm IL-12 (1 ng/ml, PeproTech). Different concentrations of Dleu2-17aa and scrPEP (Genscript) were added to the T cell culture from the beginning unless specified. Cells were cultured in U-bottom 96-well plates for 72 h and detected by flow cytometry.
For in vitro mouse T cell differentiation, after 72 h of induction, cells were activated for 4–6 h at 37 °C with the Cell Stimulation Cocktail (Thermo Fisher Scientific) if intracellular cytokine staining is needed, surface markers were stained in FACS buffer (PBS containing 2% FBS) for 30 min at 4 °C protected from light. Cells were then fixed and permeabilized with the Foxp3 Staining Buffer Set (eBioscience) or BD Cytofix/Cytoperm (BD Biosciences) and were stained with fluorescent antibodies. After washing, stained cells were assayed with an LSRFortessa (BD) flow cytometer, and data were analyzed with FlowJo software. Single-cell suspensions from EAE mouse spleen or CNS (day 16 post-immunization) were derived through mechanical separation and passage through a 70-μm filter (Fisherbrand) and analyzed using similar steps. For flow cytometry, antibodies against CD4 (clone GK1.5, 1:200), CD62L (clone MEL-14, 1:200), CD44 (clone IM7, 1:200), CD25 (clone PC61.5, 1:200), IL-17A (clone eBio17B7, 1:200), IFN-γ (clone XMG1.2, 1:200), FoxP3 (clone FJK-16s, 1:200), CD184 (clone 2B11/CXCR4, 1:100), CD152 (clone BNI3 1:100) and CD357 (clone DTA-1 1:100) were from eBioscience, CD3 (clone 145-2C11, 1:200) was from Biolegend and TGFBI (1:100) were from proteintech. For Dleu2-17aa expression detection, C57BL/6 mice were sacrificed, and their spleens were removed and gently dissociated into single-cell suspensions. An Fc blocker was used to reduce potential nonspecific antibody staining caused by IgG. Surface staining was performed using monoclonal antibodies against CD45 (clone 30-F11), CD3 (clone 145-2C11), CD19 (clone SJ25C1), CD11c (clone N418), MHCII (clone M5/114.15.2), F4/80 (clone BM8) all at a dilution of 1:200 (from Biolengend) followed by fixation and permeabilization of the nuclear membrane BD Cytofix/Cytoperm (BD Biosciences). […]

Where no end group is shown, it is not given here.

In the case of MLGRRARRRGRGRRRPA [Dleu2-17aa], the penetrating ability result in data set [1] is “capacity to penetrate into different types of T cells”. For the same sequence, the penetrating ability entry in data set [2] is on record as “capacity to penetrate into different types of T cells”. In addition, the “penetration of the peptide” value in data set [3] (0-50 μM) is recorded as “dose-dependent penetration”. Besides, in data set [3], the “concentration of maximal penetration” value fell in the range of 25 to 50 µM. Moreover, the subcellular distribution entry in data set [4] is listed as “predominantly localized in the nucleus”. Besides, in data set [5], the colocalization with astrocytes entry was “limited colocalization”, the colocalization with microglia entry is reported as “some colocalization”, the colocalization with neurons entry was “minimal colocalization” and the “presence in CD4+ T cells of spinal cord” value is given as “expressed in all the CD4^+ T cell”.
Turning to “MGRGALRRGRGRARRRGPRRGGTPG [DLEU2-25aa, 25 amino acid micropeptide of human DLEU2 transcripts]”, the “significance of CD4+Foxp3+ (%) vs PBS” value in data set [6] (two-tailed Student's t-test) was “✱✱ (**P<0.01)”. The “effect on mouse iTreg cell differentiation” value in data set [6] (vs PBS) is listed as “exhibited similar features in promoting mouse iTreg cell differentiation”.
